These results are taken from patent US20240174611A1 (Rappta Therapeutics Oy, priority 2021, published 2024).

One experiment has as its system HCC1937 cells. As to the kind of experiment: HCC1937 cell viability assay (MTS). In kind it is cell-based. As to conditions: Homo sapiens, HCC1937 cell line (footnote a), 48 hours treatment. The method, then: HCC1937 cell line HCC1937 cells are plated in a 96 well plate format at a density of 10,000 cells per well. After incubation overnight, cells are treated with compounds 1-100 at following concentrations: 80, 40, 20, 10, 5, 2.5, 1.25 μM. Compound concentrations are prepared in RPMI via serial dilutions from a starting stock of 80 mM. 48 hours after compound treatment, cell viability is assessed using the Promega CellTiter 96 aqueous one proliferation assay (Promega G3582, MTS assay) according to manufacturer's protocol.
(§1) The cell viability data was analyzed with GraphPad Prism software. The values were log transformed and analyzed with non-linear regression (curve-fit) using log(inhibitor) vs. response—variable slope (four parameters) and constraining the bottom to equal zero. Unless otherwise indicated, the GI50 values provided in Table 35 correspond to the LNCaP cell viability assays.
The compound `O=S(=O)(NC1(c2ccc(F)cn2)CCNCC1)c1ccc(OC(F)(F)F)cc1` [Compound 65, N-(4-(5-fluoropyridin-2-yl)piperidin-4-yl)-4-(trifluoromethoxy)benzenesulfonamide] gave a GI50 of 75.1 µM.
Still for that read-out and setting: for `CC(C)CCN1CCC(NS(=O)(=O)c2ccc(OC(F)(F)F)cc2)(c2ccc(Cl)cc2)C1` (stereo not drawn) [Compound 76, N-(3-(4-chlorophenyl)-1-isopentylpyrrolidin-3-yl)-4-(trifluoromethoxy)benzenesulfonamide] the value was 19.9 µM.
Still for that read-out and setting: for `N=S(=O)(NC1(c2ccc(F)cc2)CCNC1)c1ccc(OC(F)(F)F)cc1` (stereo not drawn) [Compound 84, N-(3-(4-fluorophenyl)pyrrolidin-3-yl)-4-(trifluoromethoxy)benzenesulfonimidamide] the value was 75.1 µM; for `Nc1cc(S(=O)(=O)NC2(c3ccc(F)cc3)CCNC2)ccc1OC(F)(F)F` (stereo not drawn) [Compound 92, 3-amino-N-(3-(4-fluorophenyl)pyrrolidin-3-yl)-4-(trifluoromethoxy)benzenesulfonamide], 50.3 µM.

The subject of a further experiment is LNCaP cells. As to the kind of experiment: LNCaP cell viability assay (MTS). The note with it: Homo sapiens, LNCaP, 48 h, LNCaP cell line, 48 hours treatment. In kind it is cell-based. The method, then: LNCaP cell line was used for the cell viability assay. LNCaP cells were plated in 96-well plates at a density of 5000 cells per well. After 24 hours of plating, the cells were treated with increasing doses of compound 1-100 ranging from 1 μM to 80 μM. Relative cell numbers were analyzed after 48 hours using 3-(4,5-dimethylthiazol-2-yl)-5-(3-carboxymethoxyphenyl)-2-(4-sulfophenyl)-2H-tetrazolium (MTS) assay (Promega) according to the manufacturer's instructions.
as §1
As to `O=S(=O)(NC1(c2ccccc2)CC2CCC(C1)N2)c1ccc(OC(F)(F)F)cc1` (stereo not drawn) [Compound 86, N-(3-phenyl-8-azabicyclo[3.2.1]octan-3-yl)-4-(trifluoromethoxy)benzenesulfonamide], it took 23.7 µM to inhibit growth by half (GI50).
Still for that read-out and setting: for `O=S(=O)(NC1(c2ccc(Cl)cn2)CCNCC1)c1ccc(OC(F)(F)F)cc1` [Compound 87, N-(4-(5-chloropyridin-2-yl)piperidin-4-yl)-4-(trifluoromethoxy)benzenesulfonamide] the value was 46.6 µM.
Same read-out and setting: the result for `O=S(=O)(NC1(c2cc(F)ccc2F)CCNCC1)c1ccc(OC(F)(F)F)cc1` [Compound 88, N-(4-(2,5-difluorophenyl)piperidin-4-yl)-4-(trifluoromethoxy)benzenesulfonamide] reads 36.5 µM; that for `O=S(=O)(NC1(c2ccc(Cl)c(Cl)c2)CC1)c1ccc(OC(F)(F)F)cc1` [Compound 89, N-(1-(3,4-dichlorophenyl)cyclopropyl)-4-(trifluoromethoxy)benzenesulfonamide], 46.6 µM.
The same measure, in the same setting: the result for `O=S(=O)(NC1(c2ccccc2)CCCNC1)c1ccc(OC(F)(F)F)cc1` (stereo not drawn) [Compound 90, N-(3-phenylpiperidin-3-yl)-4-(trifluoromethoxy)benzenesulfonamide] reads 48.9 µM; that for `O=S(=O)(NC1(c2ccc(Cl)s2)CCNCC1)c1ccc(OC(F)(F)F)cc1` [Compound 91, N-(4-(5-chlorothiophen-2-yl)piperidin-4-yl)-4-(trifluoromethoxy)benzenesulfonamide], 9.6 µM.
`Cc1cc(C2(NS(=O)(=O)c3ccc(OC(F)(F)F)c(N)c3)CCNC2)ccc1F` (stereo not drawn) [Compound 93, 3-amino-N-(3-(4-fluoro-3-methylphenyl)pyrrolidin-3-yl)-4-(trifluoromethoxy)benzenesulfonamide] had a GI50 of 65.5 µM.
Still for that read-out and setting: for `O=S(=O)(NC1(c2ccc(Cl)cc2F)CCNCC1)c1ccc(OC(F)(F)F)cc1` [Compound 94, N-(4-(4-chloro-2-fluorophenyl)piperidin-4-yl)-4-(trifluoromethoxy)benzenesulfonamide] the value was 15.8 µM.
On the same count and under the same terms, for `O=S(=O)(NC1(c2ncc(Cl)cc2F)CCNCC1)c1ccc(OC(F)(F)F)cc1` [Compound 95, N-(4-(5-chloro-3-fluoropyridin-2-yl)piperidin-4-yl)-4-(trifluoromethoxy)benzenesulfonamide] the value was 45.8 µM; for `NS(=O)(=NC1(c2ccc(Cl)cc2)CCNCC1)c1ccc(OC(F)(F)F)cc1` (stereo not drawn) [Compound 96, N′-(4-(4-chlorophenyl)piperidin-4-yl)-4-(trifluoromethoxy)benzenesulfonimidamide], 13.7 µM; for `O=S(=O)(NC1(c2ccc(Cl)cc2)CCNCC1)c1ccc(C(F)(F)F)cc1` [Compound 97, N-(4-(4-chlorophenyl)piperidin-4-yl)-4-(trifluoromethyl)benzenesulfonamide], 11.6 µM.
Still for that read-out and setting: the result for `O=S(=O)(NC1(c2ccc(Cl)cc2)CCNCC1)C12CC(C(F)(F)F)(C1)C2` [Compound 98, N-(4-(4-chlorophenyl)piperidin-4-yl)-3-(trifluoromethyl)bicyclo[1.1.1]pentane-1-sulfonamide] reads 46.6 µM; that for `Nc1cc(S(=O)(=O)NC2(c3ccc(Cl)cc3)CCNCC2)ccc1OC(F)(F)F` [Compound 99, 3-amino-N-(4-(4-chlorophenyl)piperidin-4-yl)-4-(trifluoromethoxy)benzenesulfonamide], 46.1 µM; that for `O=S(=O)(NC1(c2ccc(C(F)F)cc2)CCNCC1)c1ccc(OC(F)(F)F)cc1` [Compound 100, N-(4-(4-(difluoromethyl)phenyl)piperidin-4-yl)-4-(trifluoromethoxy)benzenesulfonamide], 22.3 µM.

A word on the GI50: it is the concentration that inhibits growth by half.
